Measured values: patent US20230148600A1, “PESTICIDALLY ACTIVE THIOPHENE DERIVATIVES” (SYNGENTA PARTICIPATIONS AG, priority 2017, published 2023)

How the values were obtained:
Format in all cases: in vivo
[1] = tested on: Diabrotica Balteata (Corn Root Worm); assay: Diabrotica balteata (corn root worm) mortality on sprayed maize sprouts; conditions: 96 h, application rate 200 ppm, L2 larvae, assessed 4 days after infestation
Method: Diabrotica Balteata (Corn Root Worm)
Maize sprouts placed onto an agar layer in 24-well microtiter plates were treated with aqueous test solutions prepared from 10 ′000 ppm DMSO stock solutions by spraying. After drying, the plates were infested with L2 larvae (6 to 10 per well). The samples were assessed for mortality 4 days after infestation.

[2] = tested on: Plutella Xylostella (Diamond Back Moth); assay: Plutella xylostella (diamond back moth) feeding/contact activity; conditions: 120 h, application rate 200 ppm, artificial diet treated by pipetting, L2 larvae, assessed 5 days after infestation
Method: Plutella Xylostella (Diamond Back Moth) Feeding/Contact Activity
24-well microtiter plates with artificial diet were treated with aqueous test solutions prepared from 10 ′000 ppm DMSO stock solutions by pipetting. After drying, the plates were infested with L2 larvae (10 to 15 per well). The samples were assessed for mortality 5 days after infestation.

[3] = tested on: Thrips Tabaci (Onion Thrips); assay: Thrips tabaci (onion thrips) feeding/contact activity; conditions: foliar, 144 h, application rate 200 ppm, sunflower leaf discs sprayed, thrips population of mixed ages, assessed 6 days after infestation
Method: Thrips Tabaci (Onion Thrips) Feeding/Contact Activity
(§1) Sunflower leaf discs were placed on agar in 24-well microtiter plates and sprayed with aqueous test solutions prepared from 10 ′000 ppm DMSO stock solutions. After drying the leaf discs were infested with a thrips population of mixed ages. The samples were assessed for mortality 6 days after infestation.

[4] = tested on: Spodoptera Littoralis (Egyptian Cotton Leaf Worm); assay: Spodoptera littoralis (Egyptian cotton leaf worm) feeding/contact activity; conditions: foliar, 72 h, application rate 200 ppm, cotton leaf discs sprayed, L1 larvae, assessed 3 days after infestation
Method: Spodoptera Littoralis (Egyptian Cotton Leaf Worm) Feeding/Contact Activity
Cotton leaf discs were placed onto agar in 24-well microtiter plates and sprayed with aqueous test solutions prepared from 10 ′000 ppm DMSO stock solutions. After drying the leaf discs were infested with five L1 larvae. The samples were assessed for mortality 3 days after infestation.

[5] = tested on: Tetranychus Urticae (Two-Spotted Spider Mite); assay: Tetranychus urticae (two-spotted spider mite) feeding/contact activity; conditions: foliar, 192 h, application rate 200 ppm, bean leaf discs sprayed, mite population of mixed ages, assessed 8 days after infestation, read-out: mortality on mixed population (mobile stages)
Method: Tetranychus Urticae (Two-Spotted Spider Mite) Feeding/Contact Activity
as §1, with “Bean” for “Sunflower”, “discs” for “discs were placed”, “were” for “and”, “mite” for “thrips”, “on mixed population (mobile stages) 8” for “6”

[6] = tested on: Euschistus Heros (Neotropical BROWN Stink Bug); assay: Euschistus heros (neotropical brown stink bug) feeding/contact activity; conditions: 120 h, application rate 200 ppm, soybean leaves sprayed, N2 nymphs, assessed 5 days after infestation
Method: Euschistus Heros (Neotropical BROWN Stink Bug) Feeding/Contact Activity
Soybean leaves on agar in 24-well microtiter plates were sprayed with aqueous test solutions prepared from 10 ′000 ppm DMSO stock solutions. After drying the leaves were infested with N2 nymphs. The samples were assessed for mortality 5 days after infestation.

[7] = tested on: Myzus Persicae (Green Peach Aphid); assay: Myzus persicae (green peach aphid) feeding/contact activity; conditions: foliar, 144 h, application rate 200 ppm, sunflower leaf discs sprayed, aphid population of mixed ages, assessed 6 days after infestation
Method: Myzus Persicae (Green Peach Aphid) Feeding/Contact Activity
Sunflower leaf discs were placed onto agar in a 24-well microtiter plate and sprayed with aqueous test solutions prepared from 10 ′000 ppm DMSO stock solutions. After drying, the leaf discs were infested with an aphid population of mixed ages. The samples were assessed for mortality 6 days after infestation.

Measured: mortality at 200 ppm

CCN(C(=O)c1cc(-c2cn(-c3c(Cl)cc(C(F)(C(F)(F)F)C(F)(F)F)cc3Cl)nn2)sc1Cl)C1(C#N)CC1 [Example 14, 2-chloro-N-(1-cyanocyclopropyl)-5-[1-[2,6-dichloro-4-[1,2,2,2-tetrafluoro-1-(trifluoromethyl)ethyl]phenyl]triazol-4-yl]-N-ethyl-thiophene-3-carboxamide]
≥ 80%: [1] | [2] | [3] | [4]

N#CC1(NC(=O)c2cc(-c3cnn(-c4c(Cl)cc(C(F)(C(F)(F)F)C(F)(F)F)cc4Cl)c3)sc2Cl)CC1 [Example 4, 2-chloro-N-(1-cyanocyclopropyl)-5-[1-[2,6-dichloro-4-[1,2,2,2-tetrafluoro-1-(trifluoromethyl)ethyl]phenyl]pyrazol-4-yl]thiophene-3-carboxamide]
≥ 80%: all assays above

Cc1cc(C(F)(C(F)(F)F)C(F)(F)F)cc(C)c1-n1cc(-c2cc(C(=O)NC3(C#N)CC3)c(Cl)s2)cn1 [Example 10, 2-chloro-N-(1-cyanocyclopropyl)-5-[1-[2,6-dimethyl-4-[1,2,2,2-tetrafluoro-1-(trifluoromethyl)ethyl]phenyl]pyrazol-4-yl]thiophene-3-carboxamide]
not listed: [7]
≥ 80%: all other assays above

N#Cc1sc(-c2cnn(-c3c(Cl)cc(C(F)(C(F)(F)F)C(F)(F)F)cc3Cl)c2)cc1C(=O)NC1CC1 [Example 1, 2-cyano-N-cyclopropyl-5-[1-[2,6-dichloro-4-[1,2,2,2-tetrafluoro-1-(trifluoromethyl)ethyl]phenyl]pyrazol-4-yl]thiophene-3-carboxamide]
≥ 80%: all assays above

N#CC1(NC(=O)c2cc(-c3cn(-c4c(Cl)cc(C(F)(C(F)(F)F)C(F)(F)F)cc4Cl)nn3)sc2Cl)CC1 [Example 16, 2-chloro-N-(1-cyanocyclopropyl)-5-[1-[2,6-dichloro-4-[1,2,2,2-tetrafluoro-1-(trifluoromethyl)ethyl]phenyl]triazol-4-yl]thiophene-3-carboxamide]
≥ 80%: [3] | [4]

CN(C(=O)c1cc(-c2cn(-c3c(Cl)cc(C(F)(C(F)(F)F)C(F)(F)F)cc3Cl)nn2)sc1C#N)C1CC1 [Example 12, 2-cyano-N-cyclopropyl-5-[1-[2,6-dichloro-4-[1,2,2,2-tetrafluoro-1-(trifluoromethyl)ethyl]phenyl]triazol-4-yl]-N-methyl-thiophene-3-carboxamide]
not listed: [7]
≥ 80%: all other assays above

N#CC1(NC(=O)c2cc(-c3cnn(-c4ccc(C(F)(C(F)(F)F)C(F)(F)F)cc4Cl)c3)sc2Cl)CC1 [Example 6, 2-chloro-5-[1-[2-chloro-4-[1,2,2,2-tetrafluoro-1-(trifluoromethyl)ethyl]phenyl]pyrazol-4-yl]-N-(1-cyanocyclopropyl)thiophene-3-carboxamide]
≥ 80%: [5] | [6] | [2] | [4]

Cc1cc(C(F)(C(F)(F)F)C(F)(F)F)cc(C)c1-n1cc(-c2cc(C(=O)NC3CC3)c(C#N)s2)cn1 [Example 5, 2-cyano-N-cyclopropyl-5-[1-[2,6-dimethyl-4-[1,2,2,2-tetrafluoro-1-(trifluoromethyl)ethyl]phenyl]pyrazol-4-yl]thiophene-3-carboxamide]
not listed: [1] | [3]
≥ 80%: all other assays above

CN(C(=O)c1cc(-c2cn(-c3c(Cl)cc(C(F)(C(F)(F)F)C(F)(F)F)cc3Cl)nn2)sc1Cl)C1(C#N)CC1 [Example 15, 2-chloro-N-(1-cyanocyclopropyl)-5-[1-[2,6-dichloro-4-[1,2,2,2-tetrafluoro-1-(trifluoromethyl)ethyl]phenyl]triazol-4-yl]-N-methyl-thiophene-3-carboxamide]
≥ 80%: [1] | [2] | [3] | [4]

N#Cc1sc(-c2cn(-c3c(Cl)cc(C(F)(C(F)(F)F)C(F)(F)F)cc3Cl)nn2)cc1C(=O)NC1CC1 [Example 13, 2-cyano-N-cyclopropyl-5-[1-[2,6-dichloro-4-[1,2,2,2-tetrafluoro-1-(trifluoromethyl)ethyl]phenyl]triazol-4-yl]thiophene-3-carboxamide]
≥ 80%: [1] | [2] | [3] | [4]

N#CC1(NC(=O)c2cc(-c3cnn(-c4c(Cl)cc(C(F)(C(F)(F)F)C(F)(F)F)cc4Br)c3)sc2Cl)CC1 [Example 7, 5-[1-[2-bromo-6-chloro-4-[1,2,2,2-tetrafluoro-1-(trifluoromethyl)ethyl]phenyl]pyrazol-4-yl]-2-chloro-N-(1-cyanocyclopropyl)thiophene-3-carboxamide]
≥ 80%: [5] | [6] | [2] | [4]

N#Cc1sc(-c2cnn(-c3ccc(C(F)(C(F)(F)F)C(F)(F)F)cc3Cl)c2)cc1C(=O)NC1CC1 [Example 8, 5-[1-[2-chloro-4-[1,2,2,2-tetrafluoro-1-(trifluoromethyl)ethyl]phenyl]pyrazol-4-yl]-2-cyano-N-cyclopropyl-thiophene-3-carboxamide]
not listed: [1] | [3]
≥ 80%: all other assays above

O=C(NC1CC1)c1cc(-c2cnn(-c3c(Cl)cc(C(F)(C(F)(F)F)C(F)(F)F)cc3Cl)c2)sc1Cl [Example 2, 2-chloro-N-cyclopropyl-5-[1-[2,6-dichloro-4-[1,2,2,2-tetrafluoro-1-(trifluoromethyl)ethyl]phenyl]pyrazol-4-yl]thiophene-3-carboxamide]
≥ 80%: all assays above

CCN(C(=O)c1cc(-c2cn(-c3c(Cl)cc(C(F)(C(F)(F)F)C(F)(F)F)cc3Cl)nn2)sc1C#N)C1CC1 [Example 11, 2-cyano-N-cyclopropyl-5-[1-[2,6-dichloro-4-[1,2,2,2-tetrafluoro-1-(trifluoromethyl)ethyl]phenyl]triazol-4-yl]-N-ethyl-thiophene-3-carboxamide]
not listed: [6] | [7]
≥ 80%: all other assays above

N#Cc1sc(-c2cnn(-c3c(Cl)cc(C(F)(C(F)(F)F)C(F)(F)F)cc3Cl)c2)cc1C(=O)NC1(C#N)CC1 [Example 3, 2-cyano-N-(1-cyanocyclopropyl)-5-[1-[2,6-dichloro-4-[1,2,2,2-tetrafluoro-1-(trifluoromethyl)ethyl]phenyl]pyrazol-4-yl]thiophene-3-carboxamide]
not listed: [7]
≥ 80%: all other assays above
